In patent US5216014A, “Furo-coumarinsulfonamides as protein kinase C inhibitors” (Sphinx Pharmaceuticals Corporation, priority 1991, dated 1993):

Columns and labels:
[1] = target: protein kinase C; assay: Protein Kinase C Inhibition (PKC assay, histone H1 phosphorylation); assay type: biochemical; details: 10 minutes; histone H1 substrate; rat brain enzyme
Protocol: The protein kinase C (PKC) assay is designed to duplicate the in vivo conditions required for protein kinase C function. Therefore, pH, salt and cofactor concentrations are similar to physiologic levels. A lysine rich histone H1 is used in the assay as the phosphorylation acceptor protein because it is readily available and serves as a good substrate for protein kinase C. Enzyme is prepared from rat brain and is purified to apparent homogeneity as determined by a single band on silver stained sodium dodeceyl sulfate (SDS)-polyacrylamide.
In the screening assay, phosphatidylserine (PS) and diacylglycerol (DAG) are co-sonicated to form unilamellar and multilamellar vesicles. The concentrations of lipids in the assay are suboptimal to maximize the detection potential for inhibitors. Potential inhibitor compounds are added to the assay in dimethylsulfoxide (DMSO) at three concentrations to give final inhibitor concentrations of 4.3, 43 and 218 μm, respectively. The assay is started with the addition of enzyme and stopped after 10 minutes by the addition of a 25% trichloroacetic acid (TCA) solution and 1.0 mg/ml bovine serum albumin (BSA). The radioactive histone product is retained and washed on glass fiber filters that allow the unreacted ^32 P-ATP to pass through. The amount of phosphorylation is determined by the radioactivity as measured in a scintillation counter. Controls are included in every assay to measure: background activity in the absence of enzyme, activity in the absence of lipids, and the maximum enzyme activity with saturating levels of the activator lipids.
HEPES is N-[2-hydroxyethyl] piperazine-N'-[2-ethanesulfonic acid] and EGTA is Ethylene-bis(oxyethylenenitrilo) tetraacetic acid.
Protein kinase C assay results are shown in Table 3 in the column labeled PKC. Results are shown as IC50, which is the concentration of test compound needed to inhibit 50% of the protein kinase C activity as compared with levels of protein kinase C activity in controls.

[2] = tested on: neutrophils; assay: Neutrophil Superoxide Anion (O2 -) Release Assay; assay type: cell-based; details: Homo sapiens, 0.5 h, PMA-stimulated, 37° C. for 30 min
Protocol: Neutrophils are isolated form whole blood collected from human volunteers. All reagent materials are obtained from Sigma Chemical Company with the exception of isotonic saline (Travenol Laboratories, Inc., Deerfield, Ill.) and lymphocyte separation medium (Organon Teknika, Durham, N.C.).
Whole blood is drawn and mixed with sodium heparin (final conc. 10 units/ml) to prevent clotting. An equal volume of dextran (3.0%) in isotonic saline is added, mixed, and allowed to settle for 30 min to bind red blood cells (RBC). Supernatant is removed, underlayered with lymphocyte separation medium and centrifuged for 40 min at 400 xg in a centrifuge (Beckman GPR, Norcross, Ga.). The pellet is alternately resuspended in 0.2% and 1.6% NaCl to lyse RBCs before washing with Hank's Balanced Salt Solution (HBSS). The washed pellet is resuspended in 10 ml HBSS and placed on ice before counting on a hemacytometer.
The neutrophil cell concentration is adjusted to 2×10^6 cells/ml with HBSS before adding 0.8 ml cells to 12×75 mm polypropylene test tubes (Fisher Scientific). Test agents are diluted to determine dose response and added at 10X final concentration at a volume of 0.1 ml/tube in duplicate. Then 10X concentrations of cytochrome C (15 mg/ml) with catalase (3000 units/ml) either alone or containing 25 ng/ml phorbol 12-myristate 13-acetate (PMA) are added at a volume of 0.1 ml/tube and incubated at 37° C. for 30 min before stopping the reaction by placing tubes on ice. Tubes are then centrifuged at 900 xg for 10 min, 0.5 ml supernatant is removed and added to 0.5 ml H2 O in a microcuvette. Optical density (OD) of cytochrome c is read in a spectrophotometer (Shimadzu) at 550 nm. The ΔOD of cytochrome c is obtained between PMA-stimulated and non-stimulated tubes, and the dose responses of the test agents are compared to the positive controls (which contain HBSS in place of test agents). PMA stimulates O2 production which reduces cytochrome c. Reducing cytochrome c increases its absorbance, and the change in OD of cytochrome c is proportional to the amount of O2 produced by PMA stimulation. Inhibition of the O2 - burst by test compounds of the invention is seen as a reduction in the change in optical density. Inhibition is expressed as IC50 μM and is the amount of test compound that will inhibit fifty percent of the PMA-stimulated respiratory burst, i.e. O2 production.

[3] = tested on: MCF-7; assay: Human Tumor Cell Growth Inhibition (3H-thymidine uptake); assay type: cell-based; details: MCF7; MCF-7 human breast tumor cell line; 18-24 hrs; read-out: MCF-7 (IC50, 3H-thymidine incorporation)
Excerpt: MCF-7 a human breast tumor cell line and MCF-7/ADR an adriamycin resistant line of MCF-7 cells were obtained from the National Cancer Institute, Frederick, Md. CEM cells (ATCC accession number CCL 119) were obtained from the American Type Culture Collection, Rockville, Md.
Human tumor cells are trypsinized (0.05% trypsin, GIBCO), counted with a hemacytometer and seeded at a concentration of 10,000 cells/well in a 96 well microtiter plate. After allowing cells to attach to the surface overnight, the culture medium is aspirated and replaced with 100 μl of fresh medium. Test agents are diluted to determine dose response at 2X final concentration and added in quadruplicate at 100 μl/well to bring the total volume of each well to 200 μl. The microtiter plate is then incubated at 3 37° C. 5% CO2 overnight (18-24 hrs) before ^3 H-thymidine is added at a concentration of 0.5 μCi/well in 50 μl culture medium. The plate is incubated again for 4 hrs under the same conditions as above. Supernatant is then aspirated and 50 μl trypsin (0.05%, GIBCO) is added to each well. Cells are checked microscopically to determine detachment from surfaces, and plates are then harvested with a cell harvester (PHD, Cambridge Technology, Inc.) Filter papers corresponding to wells are placed in scintillation vials and counted to determine the amount of ^3 H-thymidine incorporated by the cells. […]

[4] = tested on: human keratinocytes (NHEK cells); assay: Human Keratinocyte Inhibition (3H-thymidine incorporation); assay type: cell-based
Protocol: Proliferating keratinocytes (NHEK cells purchased from Clonetics, Inc., San Diego, Calif.) in second passage were grown in Keratinocyte Growth Medium (KGM) (Clonetics, Inc.) Cells are trypsinized (0.025% trypsin, Clonetics), counted with a hemacytometer (Scientific Products), and seeded at a concentration of 2,500 cells/well in a 96 well microtiter plate. After allowing cells to attach to the surface overnight, the culture medium is aspirated and replaced with […] of fresh KGM. Test agents are evaluated and IC50,s are ^3 H-thymidine determined according to the ^3 H-thymidine incorporation procedures described as in Example 8. IC50 is the concentration of test compound required to inhibit fifty percent of the incorporation of H-thymidine into proliferating cells not exposed to test agent.

[5] = target: cAMP dependent protein kinase (PKA); assay: cAMP Dependent Protein Kinase (PKA) Assay; assay type: biochemical; details: 10 min; catalytic subunit of PKA
Protocol: Compounds found to be inhibitors of protein kinase C activity are tested for inhibitory activity against protein kinase (PKA). This enzyme, like protein kinase C, plays an important role in cell-cell communication and is activated by a second messenger, cAMP. Secondary screening against PKA is useful for ascertaining the selectivity of the compounds of the invention. A cAMP dependent protein kinase assay utilizes a catalytic subunit of PKA (Sigma Chemical Company, St. Louis, Missouri) that is mixed with buffer before addition of the inhibitor in dimethylsulfoxide (DMSO). The assay is started by the addition of ^32 P-ATP and the reaction is allowed to proceed for 10 min before stopping with 25% trichloroacetic acid (TCA) and 1.0 mg/ml bovine serum albumin (BSA). The phosphorylated protein is isolated by filtration and the radioactivity is counted in a beta scintillation counter.
PKA assay results are shown in Table 5 in the column labeled PKA. […] The tested compounds of the invention are selective for protein kinase C, and have no effect on cAMP dependent protein kinase. This is seen by a comparison of Tables 3 and 5. […] Thus, the compounds of the invention should have minimal or no effect on the metabolic pathways associated with stimulation of protein kinase by cAMP.

[6] = Solubility remark in tumor cell growth test; assay type: physicochemical; design: key: *: indicates that the compound was too insoluble to test; details: footnote mark in Table 6

IC50 [1]	IC50 [2]	IC50 [3]	IC50 [4]	IC50 [5]	SMILES	MCF-7: too insoluble to test [6]
33 µM					COc1c2occc2c(S(=O)(=O)NCCCNCCCNS(=O)(=O)c2c3ccoc3c(OC)c3oc(=O)ccc23)c2ccc(=O)oc12 [Compound 5]	
17 µM	> 10 µM	11 µM	9.5 µM	> 218 µM	COc1c2occc2c(S(=O)(=O)NCCCN(C)CCCNS(=O)(=O)c2c3ccoc3c(OC)c3oc(=O)ccc23)c2ccc(=O)oc12 [Compound 4]	
24 µM	> 10 µM		1.4 µM	> 218 µM	COc1c2occc2c(S(=O)(=O)NCCCNCCCCNCCCNS(=O)(=O)c2c3ccoc3c(OC)c3oc(=O)ccc23)c2ccc(=O)oc12 [Compound 2]	*
30 µM	> 10 µM		11.9 µM	> 218 µM	COc1c2occc2c(S(=O)(=O)NCCCNCCCCNCCCN)c2ccc(=O)oc12 [Compound 1, N-[3-[4-(3-amino-1-propyl)-amino-1-butyl]-amino-1-propyl]-s-methyl-furo[3,2-g]coumarin-5-sulfonamide]	*
21 µM	> 10 µM	5.5 µM	15.4 µM	> 218 µM	COc1c2occc2c(S(=O)(=O)NCCCCNCCCNS(=O)(=O)c2c3ccoc3c(OC)c3oc(=O)ccc23)c2ccc(=O)oc12 [Compound 3]	
